According to patent US11091476B2, “Protein kinase inhibitors, preparation method and medical use thereof” (Gan & Lee Pharmaceuticals, priority 2015, dated 2021):

Legend:
Type in all cases: biochemical
CDK1/CyclinA2 = CDK1/CyclinA2 (Homo sapiens (Human), UniProt P06493); experiment: CDK kinase inhibitory activity, ADP-Glo Kinase Assay, CDK1/CyclinA2
Protocol: (§1) Measurement of CDK kinase inhibitory activity of the compounds of this disclosure.
(§2) In vitro inhibitory effect of the compounds of the disclosure on CDK (CDK1, CDK4 and CDK6) kinase activity was tested by the following method.
(§3) 1.1 Instrument and Kit Information
(§4) 1.2 Experimental Preparation • 1.2.1 Preparation of Kinase Reaction Buffer I: The 5×Reaction Buffer A (Promega; V307A-C) provided in the kit was mixed and diluted with MILLI-Q® H2O and 0.1 M DTT (dithiothreitol) to give 4× kinase buffer, and then MILLI-Q® H2O was further added to finally formulate the solution into 1× Kinase buffer.
(§5) 1 μl of 10 mM standard substance stock solution was taken and added to 9 μl of kinase reaction buffer I and mixed well; then 90 μl of kinase reaction buffer I was added and mixed well; then 100 μl of kinase reaction buffer I was added and mixed well. The final concentration was 50 μM. • b. 40 μl of kinase reaction buffer II was added into B2 to B10 of a 96-well plate, and 50 μl of the above solution was added into B1; • c. 10 μl of solution was taken from well B1, added into B2, and mixed well; then 10 μl of the resulting solution was taken and added into B3, and dilution was carried out in sequence to B9, so as to obtain control solutions that are diluted by 5-fold sequentially. • (2) Preparation of test compound solution: • a. Test compound solutions at a certain concentration were taken, respectively, diluted with kinase reaction buffer I to a final concentration of 50 μM compound solution; • b. 40 μl of kinase reaction buffer II was added into H2 to H10 of the 96-well plate; and 50 μl of the above solution was added into H1; • c. 10 μl of solution was taken from well H1, added into H2, and mixed well; then 10 μl of the resulting solution was taken and added into H3, and dilution was carried out in sequence to H9, so as to obtain test compound solutions that are diluted by 5-fold sequentially. • 1.2.4 Preparation of a mixed solution of reaction substrate and ATP: • a. Preparation of ATP solution: • 200 μl of 0.1 mM ATP solution: 2 μl of 10 mM ATP was added to 198 μl of kinase reaction buffer I; • 300 μl of 50 μM ATP solution: 150 μl of kinase reaction buffer I was added to 150 μl of the above 0.1 mM ATP solution; • b. Preparation of 300 μl of reaction substrate solution: • 150 μl 1 μg/μl reaction substrate stock solution was added to 150 μl kinase reaction buffer I, and mixed well; • c. The above a/b solutions were mixed to obtain mixed solutions, respectively.
(§6) 1.3 Experimental process: • 1.3.1: 2 μl of compound solutions of various concentrations were taken, added to a 384-well plate, and centrifuged 3 minutes; • 1.3.2: 4 μl of kinase solution was added to each well, centrifuged at 5000 rpm and 18° C. for 10 minutes, and shaken on a plate shaker for 10 minutes; • 1.3.3: 4 μl of mixed solution of substrate and ATP was added to each well, centrifuged at 5000 rpm and 18° C. for 10 minutes, and shaken on a plate shaker at 37° C. for 90 minutes; • 1.3.4: The 384-well plate was taken out, and allowed to stand to room temperature; • 1.3.5: 10 μl of ADP-GLO™ reagent was added to each well, centrifuged at 5000 rpm and 18° C. for 18 minutes, and shaken on a plate shaker at 25° C. for 40 minutes, and then the reaction was stopped; • 1.3.6: 20 μl of kinase detection reagent was added to each well, centrifuged at 5000 rpm and 18° C. for 10 minutes, and shaken on a plate shaker at 25° C. for 30 minutes; and • 1.3.7: M1000pro MICROPLATE READER was used to read […] values.
(§7) The inhibition rate of each compound at each concentration point was calculated by the formula as follows and curve fitting was performed by GraphPad Prism 5 software to obtain the IC50 value.

CDK9/CyclinD3 = CDK9/CyclinD3 (Homo sapiens (Human), UniProt P50750); experiment: Kinase inhibitory activity, ADP-Glo Kinase Assay, CDK9/CyclinD3
Protocol: as §3, §4, §5, §6, §7

CDK6/CyclinD3 = CDK6/CyclinD3 (Homo sapiens (Human), UniProt Q00534); experiment: CDK kinase inhibitory activity, ADP-Glo Kinase Assay, CDK6/CyclinD3; settings: for CDK1/CDK6 / CDK9/CDK6 / Pim-1/CDK6: ratio of IC50s; for CDK1/CDK6: selectivity for CDK6 over CDK1; for CDK9/CDK6: selectivity for CDK6 over CDK9; for Pim-1/CDK6: selectivity for CDK6 over Pim-1
Protocol: as §1, §2, §3, §4, §5, §6, §7

Pim-1 = Pim-1 (Homo sapiens (Human), UniProt P11309); experiment: Kinase inhibitory activity on Pim-1
Protocol: as §4, §5, §6, §7

Row | Structure (SMILES) | IC50 (CDK1/CyclinA2) [nM] | IC50 (CDK9/CyclinD3) [nM] | IC50 (CDK6/CyclinD3) [nM] | CDK1/CDK6 (CDK6/CyclinD3) | CDK9/CDK6 (CDK6/CyclinD3) | Pim-1/CDK6 (CDK6/CyclinD3) | IC50 (Pim-1) [nM]
1 | CCC1(C)C(C)=Nc2c(F)cc(-c3nc(Nc4ccc(N5CCN(C)CC5)cn4)ncc3F)cc21 (centres unmarked) [Example 18, 4-(3-ethyl-7-fluoro-2,3-dimethyl-3H-indol-5-yl)-5-fluoro-N-(5-(4-methylpiperazin-1-yl)pyridin-2-yl)pyrimidine-2-amino] | 190 | 1 | 2.74 | 69.29 | 0.36 | – | –
2 | CCC1(C)C(C)=Nc2c(F)cc(-c3nc(Nc4ccc(C5CCN(C)CC5)cn4)ncc3F)cc21 (centres unmarked) [Example 24, 4-(3-ethyl-7-fluoro-2,3-dimethyl-3H-indol-5-yl)-5-fluoro-N-(5-(1-methylpiperidin-4-yl)pyridin-2-yl)pyrimidine-2-amino] | 76.4 | 1.74 | 12.9 | 5.94 | 0.13 | 5.66 | 72.8
3 | CC1=Nc2c(F)cc(-c3nc(Nc4ccc(N5CCN(CCO)CC5)cn4)ncc3F)cc2C12CCCC2 [Example 28, 2-(4-(6-((5-fluoro-4-(7′-fluoro-2′-methylspiro[cyclopentane-1,3′-indol]-5′-yl)pyrimidin-2-yl)amino)pyridin-3-yl)piperazin-1-yl)ethanol] | 328 | 0.96 | 6.24 | 52.63 | 0.15 | – | –
4 | CCC1(CC)C(C)=Nc2c(F)cc(-c3nc(Nc4ccc(N5CCN(C)CC5)cn4)ncc3F)cc21 [Example 16, 4-(3,3-diethyl-7-fluoro-2-methyl-3H-indol-5-yl)-5-fluoro-N-(5-(4-methylpiperazin-1-yl)pyridin-2-yl)pyrimidine-2-amino] | – | 16.4 | 9.02 | 10.61 | 1.81 | 76.10 | 686
5 | CCN1CCN(c2ccc(Nc3ncc(F)c(-c4ccc5c(c4)C4(CCCC4)C(C)=N5)n3)nc2)CC1 [Example 22, N-(5-(4-ethylpiperazin-1-yl)pyridin-2-yl)-5-fluoro-4-(2′-methylspiro[cyclopentane-1,3′-indol]-5′-yl)pyrimidine-2-amino] | 915 | 0.5 | 52.5 | 17.43 | 0.009 | – | –
6 | CCN1CCN(Cc2ccc(Nc3ncc(F)c(-c4cc(F)c5c(c4)C4(CCCC4)C(C)=N5)n3)nc2)CC1 [Example 3] | – | – | 79.1 | – | – | – | 198
7 | CC1=Nc2c(F)cc(-c3nc(Nc4ccc(C5CCN(CCO)CC5)cn4)ncc3F)cc2C12CCCC2 [Example 30, 2-(4-(6-((5-fluoro-4-(7′-fluoro-2′-methylspiro[cyclopentane-1,3′-indol]-5′-yl)pyrimidin-2-yl)amino)pyridin-3-yl)piperidin-1-yl)ethanol] | 177 | 0.43 | 0.49 | 360.37 | 0.88 | – | –
8 | CCC1(CC)C(C)=Nc2c(F)cc(-c3nc(Nc4ccc(C5CCN(C)CC5)cn4)ncc3F)cc21 [Example 38, 4-(3,3-diethyl-7-fluoro-2-methyl-3H-indol-5-yl)-5-fluoro-N-(5-(1-methylpiperidin-4-yl)pyridin-2-yl)pyrimidine-2-amino] | 19.8 | – | 0.2 | 99.15 | – | – | –
9 | CCC1(CC)C(C)=Nc2c(F)cc(-c3nc(Nc4ccc(N5CCNCC5)cn4)ncc3F)cc21 [Example 29, 4-(3,3-diethyl-7-fluoro-2-methyl-3H-indol-5-yl)-5-fluoro-N-(5-(piperazin-4-yl)pyridin-2-yl)pyrimidine-2-amino] | 82.4 | – | 3.15 | 26.20 | – | – | –
10 | CC1=Nc2ccc(-c3nc(Nc4ccc(C5CCNCC5)cn4)ncc3F)cc2C12CCCC2 [Example 15, 5-fluoro-4-(2′-methylspiro[cyclopentane-1,3′-indol]-5′-yl)-N-(5-(piperidin-4-yl)pyridin-2-yl)pyrimidine-2-amino] | 26.9 | – | 4.31 | 6.25 | – | – | –
11 | CCC1(C)C(C)=Nc2ccc(-c3nc(Nc4ccc(C5CCN(C)CC5)cn4)ncc3F)cc21 (centres unmarked) [Example 35, 4-(3-ethyl-2,3-dimethyl-3H-indol-5-yl)-5-fluoro-N-(5-(1-methylpiperidin-4-yl)-pyridin-2-yl)pyrimidine-2-amino] | 64 | – | 8.74 | 7.33 | – | – | –
12 | CCC1(C)C(C)=Nc2c(F)cc(-c3nc(Nc4ccc(N5CCNCC5)cn4)ncc3F)cc21 (centres unmarked) [Example 7, 4-(3-ethyl-7-fluoro-2,3-dimethyl-3H-indol-5-yl)-5-fluoro-N-(5-(piperazin-1-yl)pyridin-2-yl)pyrimidine-2-amino] | – | 4.58 | 3.26 | 25.71 | 1.40 | 141.53 | 461

Second part, the molecule after the results:

Row | IC50 (CDK1/CyclinA2) [nM] | IC50 (CDK9/CyclinD3) [nM] | IC50 (CDK6/CyclinD3) [nM] | CDK1/CDK6 (CDK6/CyclinD3) | CDK9/CDK6 (CDK6/CyclinD3) | Pim-1/CDK6 (CDK6/CyclinD3) | IC50 (Pim-1) [nM] | Structure (SMILES)
13 | – | 245 | 43 | 51.68 | 5.69 | 5.12 | 220 | CC1=Nc2c(F)cc(-c3nc(Nc4ccc(N5CCNCC5)cn4)ncc3F)cc2C1(C)C [Example 1, 5-fluoro-4-(7-fluoro-2,3,3-trimethyl-3H-indol-5-yl)-N-(5-(piperazin-1-yl)pyridin-2-yl)pyrimidine-2-amino]
14 | 234 | – | 4.07 | 57.40 | – | 7.03 | 28.6 | CC1=Nc2ccc(-c3nc(Nc4ccc(N5CCNCC5)cn4)ncc3F)cc2C12CCCC2 [Example 14, 5-fluoro-4-(2′-methylspiro[cyclopentane-1,3′-indol]-5′-yl)-N-(5-(piperazin-1-yl)pyridin-2-yl)pyrimidine-2-amino]
15 | 417 | 1.09 | 8.78 | 47.51 | 0.12 | – | – | CC1=Nc2ccc(-c3nc(Nc4ccc(N5CCN(C)CC5)cn4)ncc3F)cc2C12CCCC2 [Example 25, 5-Fluoro-N-(5-(4-methylpiperazin-1-yl)pyridin-2-yl)-4-(2′-methylspiro [cyclopentane-1,3′-indol]-5′-yl)pyrimidine-2-amino]
16 | – | 11 | 12.5 | 17.27 | 0.88 | – | – | CCN1CCC(c2ccc(Nc3ncc(F)c(-c4cc(F)c5c(c4)C(C)(CC)C(C)=N5)n3)nc2)CC1 (centres unmarked) [Example 26, 4-(3-ethyl-7-fluoro-2,3-dimethyl-3H-indol-5-yl)-N-(5-(1-ethylpiperidin-4-yl)pyridin-2-yl)-5-fluoropyrimidine-2-amino]
17 | 1440 | 0.24 | 87.6 | 16.49 | 0.003 | – | – | CC1=Nc2c(F)cc(-c3nc(Nc4ccc(N5CCN(C)CC5)cn4)ncc3F)cc2C12CCCC2 [Example 20, 5-Fluoro-4-(7′-fluoro-2′-methylspiro[cyclopentane-1,3′-indol]-5′-yl)-N-(5-(4-methylpiperazin-1-yl)pyridin-2-yl)pyrimidine-2-amino]
18 | 436 | 27 | 47.1 | 9.25 | 0.57 | – | – | CCN1CCN(Cc2ccc(Nc3ncc(F)c(-c4cc(F)c5c(c4)C(CC)(CC)C(C)=N5)n3)nc2)CC1 [Example 10]
